According to patent US8163871B2, “Enzymatic reactions in the presence of keto acids” (Unigene Laboratories, Inc., priority 2004, dated 2012):
One block for each compound: values may come before it.

Tested on: peptidylglycine α-amidating monooxygenase (PAM)
Experiment: α-Amidation of rhPTH(1-31)Gly32-OH to rhPTH(1-31)-NH2 with PAM in the presence of α-keto acids/esters (CEX-HPLC area %)
Type: biochemical
Conditions: 4 mg/mL rhPTH(1-31)Gly32-OH, 15,000 U/mL PAM, MES pH 6.3-6.5, 4 hours at 37° C.
Text: Because the R group is unchanged in this reaction, a large number of R moieties is possible. Applicants have tested a number of keto acids (or corresponding esters or salts thereof), and have reported their efficacy in Table 1 below for the amidation of recombinant human parathyroid hormone truncate (first 31 amino acids of PTH followed by C-terminal glycine). Amidation using catalase is also reported in the footnotes to Table 1. […] A preferred concentration was chosen for each compound. Also, separate controls are therefore used with respect to each of the compounds tested in Table 1, so that each compound's performance may be compared to its corresponding control. […] The control values that are set forth in Table 1 are typical values observed for amidation of rhPTH(1-31)Gly32-OH in the absence of the reaction-enhancing compounds of the invention.
To determine the information in Table 1 below, stock solutions of all reagents were prepared in water. Amidations were carried out under the following conditions: 4 mg/mL rhPTH(1-31)Gly32-OH, 30 mM 2-morpholinoethanesulfonic acid (MES) pH [6.3-6.5], 0.5 μM cupric sulfate, 5 mM potassium iodide, 2 mM ascorbate, [0-1%] ethanol and 15,000 U/mL PAM. All reactions were incubated for 4 hours at 37° C. Reagents were added in the following order: rhPTH(1-31)Gly32-OH, water, MES, potassium iodide, ethanol, cupric sulfate, α-keto acid or ester, ascorbate and PAM. All reactions were acidified to pH 2.0 with 6% trifluoroacetic acid and analyzed by CEX-HPLC (area %) to detect formation of the desired product rhPTH(1-31)NH2.

Compound: 2-Keto glutaric acid, sodium salt
% Conversion (10 mM compound): 76%

Compound: CCC(=O)C(=O)[O-].[Na+] [2-Ketobutyric acid, sodium salt]
% Conversion (16 mM compound): 96%

Compound: CC(C)C(=O)C(=O)[O-].[Na+] [3-Methyl-2-oxobutanoic acid, sodium salt]
% Conversion (64 mM compound): 78%

Compound: CCC(C)C(=O)C(=O)[O-].[Na+] (stereo not shown) [3-Methyl-2-oxopentanoic acid, sodium salt]
% Conversion (10-150 mM compound): ≦61%

Compound: CC(C)CC(=O)C(=O)[O-].[Na+] [4-Methyl-2-oxopentanoic acid, sodium salt]
% Conversion (10-150 mM compound): <48%

Compound: O=C(O)C(=O)c1ccccc1 [Benzoylformic acid]
% Conversion (10 mM compound): 82%

Compound: CCOC(=O)C(C)=O [Ethyl pyruvate]
% Conversion (50 mM compound): 89%

The remaining lines, values ahead:

% Conversion (50 mM compound): 86%
Compound: COC(=O)C(C)=O [Methyl pyruvate]

% Conversion (6 mM compound, average of triplicate values): 86^a %
Compound: CC(=O)C(=O)O [Pyruvic acid]

% Conversion (8 mM compound): 95%
Compound: CC(=O)C(=O)[O-].[Na+] [Sodium pyruvate]
